Assay results reported in patent publication US20120202794A1 (priority 2011, published 2012).

Tests used:
[1] = Cell cytotoxicity assay (MTS), CC90 as reported in Table 1, cell line not stated; assay type: cell-based; conditions: human; MTS assay; 8 days incubation; cell line not given
Method in brief: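 Compounds, serially diluted from 100 μM, were incubated 8 days at 37° C with Huh7, HepG2 or BxPC3 (2×10^3 cells/well) or CEM (5×10^3 cells/well). Viability was read by MTS, 2 h, absorbance 490 nm. CC90 (90% inhibition) was taken against untreated cells.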

HCV Replicon 1b = assay: HCV inhibition assay, HCV replicon 1b (Clone A or ET-lunet cells; RT-PCR or luciferase reporter); assay type: cell-based; conditions: Hepatitis C virus, 96 h, HCV replicon 1b; 4 days incubation; read-out: Replicon 1b potency EC90
Method in brief: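 Clone A (1500/well) or ET-lunet (3000/well) replicon cells treated with serially diluted compounds (0.5% DMSO, no G418) for 4 days at 37 °C. HCV RNA measured by one-step RT-PCR normalized to rRNA (ΔΔCt) or by luciferase luminescence versus DMSO controls; EC50/EC90 by curve fitting.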

SMILES | CC90 at 8 days [1] [nM] | EC90 (HCV Replicon 1b) [nM]
C/C=C/[C@H]1CN(C(=O)[C@@H]2C[C@H]2c2ccccc2)[C@@H](CC(C)C)C(=O)N1 [Compound 422, (3S,6S)-3-isobutyl-4-((1R,2R)-2-phenylcyclopropanecarbonyl)-6-((E)-prop-1-en-1-yl)piperazin-2-one] | > 10000 | 2100
CC(C)C[C@H]1C(=O)N[C@H](c2cccs2)CN1C(=O)c1cc(-c2ccc(F)cc2)on1 [Compound 428, (3S,6S)-4-(5-(4-fluorophenyl)isoxazole-3-carbonyl)-3-isobutyl-6-(thiophen-2-yl)piperazin-2-one] | > 10000 | > 10000
CC(C)C[C@H]1C(=O)N[C@@H](c2cccs2)CN1C(=O)c1nc(-c2ccc(F)cc2)no1 [Compound 431, (3S,6R)-4-(3-(4-fluorophenyl)-1,2,4-oxadiazole-5-carbonyl)-3-isobutyl-6-(thiophen-2-yl)piperazin-2-one] | > 10000 | 24
CC(C)C[C@H]1C(=O)N[C@@H](c2cccs2)CN1C(=O)/C=C/c1ccc(F)cc1F [Compound 434, (3S,6R)-4-((E)-3-(2,4-difluorophenyl)acryloyl)-3-isobutyl-6-(thiophen-2-yl)pipera-zin-2-one] | > 10000 | 48
CC(C)C[C@H]1C(=O)N[C@@H](c2cccs2)CN1Cc1cc(-c2ccc(F)cc2)on1 [Compound 435, (3S,6R)-4-((5-(4-fluorophenyl)isoxazol-3-yl)methyl)-3-isobutyl-6-(thiophen-2-yl)piperazin-2-one] | > 10000 | 260
Cc1ccsc1[C@H]1CN(C(=O)[C@@H]2C[C@H]2c2ccc(F)cc2)[C@@H](CC(C)C)C(=O)N1 [Compound 438, (3S,6R)-4-((1R,2R)-2-(4-fluorophenyl)cyclopropanecarbonyl)-3-isobutyl-6-(3-methylthiophen-2-yl)piperazin-2-one] | > 10000 | > 10000
Cc1ccsc1[C@H]1CN(C(=O)c2noc(-c3ccc(F)cc3)n2)[C@@H](CC(C)C)C(=O)N1 [Compound 441, (3S,6R)-4-(5-(4-fluorophenyl)-1,2,4-oxadiazole-3-carbonyl)-3-isobutyl-6-(3-methylthiophen-2-yl)piperazin-2-one] | > 10000 | > 10000
CC(C)C[C@H]1C(=O)N[C@@H](C2CCC2)CN1C(=O)c1cc(-c2ccc(F)cc2)on1 [Compound 443, (3S,6S)-6-cyclobutyl-4-(5-(4-fluorophenyl)isoxazole-3-carbonyl)-3-isobutylpiperazin-2-one] | > 10000 | 740
C/C=C/[C@H]1CN(C(=O)c2cc(-c3ccc(F)cc3)no2)[C@@H](CC(C)C)C(=O)N1 [Compound 447, (3S,6S)-4-(3-(4-fluorophenyl)isoxazole-5-carbonyl)-3-isobutyl-6-((E)-prop-1-en-1-yl)piperazin-2-one] | > 10000 | 140
C/C=C/[C@H]1CN(C(=O)c2noc(-c3ccc(F)cc3)n2)[C@@H](CC(C)C)C(=O)N1 [Compound 448, (3S,6S)-4-(5-(4-fluorophenyl)-1,2,4-oxadiazole-3-carbonyl)-3-isobutyl-6-((E)-prop-1-en-1-yl)piperazin-2-one] | > 10000 | 110
C/C=C/[C@H]1CN(C(=O)/C=C/c2ccc(F)cc2F)[C@@H](CC(C)C)C(=O)N1 [Compound 449, (3S,6S)-4-((E)-3-(2,4-difluorophenyl)acryloyl)-3-isobutyl-6-((E)-prop-1-en-1-yl)piperazin-2-one] | > 10000 | 1190
CC(C)C[C@H]1C(=O)N[C@@H](c2ccsc2)CN1C(=O)c1cc(-c2ccc(F)cc2)no1 [Compound 450, (3S,6S)-4-(3-(4-fluorophenyl)isoxazole-5-carbonyl)-3-isobutyl-6-(thiophen-3-yl)piperazin-2-one] | > 10000 | 59
CC(C)C[C@H]1C(=O)N[C@@H](c2ccsc2)CN1C(=O)/C=C/c1ccc(F)cc1F [Compound 451, (3S,6S)-4-((E)-3-(2,4-difluorophenyl)acryloyl)-3-isobutyl-6-(thiophen-3-yl)piperazin-2-one] | > 10000 | 125
C/C=C/[C@H]1CN(C(=O)[C@@H]2C[C@H]2c2ccc(F)cc2)[C@@H](CC(C)C)C(=O)N1 [Compound 452, (3S,6S)-4-((1R,2R)-2-(4-fluorophenyl)cyclopropanecarbonyl)-3-isobutyl-6-((E)-prop-1-en-1-yl)piperazin-2-one] | > 10000 | 48
Cc1ccc([C@H]2CN(C(=O)c3cc(-c4ccc(F)cc4)on3)[C@@H](CC(C)C)C(=O)N2)s1 [Compound 453, (3S,6R)-4-(5-(4-fluorophenyl)isoxazole-3-carbonyl)-3-isobutyl-6-(5-methylthiophen-2-yl)piperazin-2-one] | > 10000 | 680
CC(C)C[C@H]1C(=O)NC(C2CCOCC2)CN1C(=O)c1cc(-c2ccc(F)cc2)on1 (stereo partly drawn) [Compound 456, (3S)-4-(5-(4-fluorophenyl)isoxazole-3-carbonyl)-3-isobutyl-6-(tetrahydro-2H-pyran-4-yl)piperazin-2-one] | > 10000 | 194
CSC[C@H]1C(=O)N[C@@H](c2ccccc2)CN1C(=O)[C@@H]1C[C@H]1c1ccc(F)cc1 [Compound 460, (3R,6S)-4-((1R,2R)-2-(4-fluorophenyl)cyclopropanecarbonyl)-3-((methylthio)-methyl)-6-phenylpiperazin-2-one] | > 10000 | 1160
C=CC[C@H]1C(=O)N[C@@H](c2ccccc2)CN1C(=O)[C@@H]1C[C@H]1c1ccc(F)cc1 [Compound 462, (3S,6S)-3-allyl-4-((1R,2R)-2-(4-fluorophenyl)cyclopropanecarbonyl)-6-phenyl-piperazin-2-one] | > 10000 | 1520
CC(C)C[C@H]1C(=O)N[C@@H](C2CCC2)CN1C(=O)[C@@H]1C[C@H]1c1ccc(F)cc1 [Compound 464, (3S,6S)-6-cyclobutyl-4-((1R,2R)-2-(4-fluorophenyl)cyclopropanecarbonyl)-3-isobutylpiperazin-2-one] | > 10000 | 830
C=CC[C@H]1C(=O)N[C@@H](c2ccccc2)CN1C(=O)c1noc(-c2ccc(F)cc2)n1 [Compound 465, (3S,6S)-3-allyl-4-(5-(4-fluorophenyl)-1,2,4-oxadiazole-3-carbonyl)-6-phenyl-piperazin-2-one] | > 10000 | 290
CSC[C@H]1C(=O)N[C@@H](c2ccccc2)CN1C(=O)c1noc(-c2ccc(F)cc2)n1 [Compound 466, (3R,6S)-4-(5-(4-fluorophenyl)-1,2,4-oxadiazole-3-carbonyl)-3-((methylthio)methyl)-6-phenylpiperazin-2-one] | > 10000 | 650
CC(C)C[C@H]1C(=O)N[C@@H](C2CCC2)CN1C(=O)c1noc(-c2ccc(F)cc2)n1 [Compound 467, (3S,6S)-6-cyclobutyl-4-(5-(4-fluorophenyl)-1,2,4-oxadiazole-3-carbonyl)-3-isobutylpiperazin-2-one] | > 10000 | 250
CSC[C@H]1C(=O)N[C@@H](c2ccccc2)CN1C(=O)c1cc(-c2ccc(F)cc2)on1 [Compound 468, (3R,6S)-4-(5-(4-fluorophenyl)isoxazole-3-carbonyl)-3-((methylthio)methyl)-6-phenylpiperazin-2-one] | > 10000 | 690
O=C1N[C@@H](c2ccccc2)CN(C(=O)[C@@H]2C[C@H]2c2ccc(F)cc2)[C@H]1c1cccs1 [Compound 469, (3R,6S)-4-((1R,2R)-2-(4-fluorophenyl)cyclopropanecarbonyl)-6-phenyl-3-(thiophen-2-yl)piperazin-2-one] | > 10000 | 1060
O=C1N[C@@H](c2ccccc2)CN(C(=O)c2cc(-c3ccc(F)cc3)on2)[C@H]1c1cccs1 [Compound 471, (3R,6S)-4-(5-(4-fluorophenyl)isoxazole-3-carbonyl)-6-phenyl-3-(thiophen-2-yl)piperazin-2-one] | > 10000 | 570
O=C1N[C@@H](c2ccccc2)CN(C(=O)c2noc(-c3ccc(F)cc3)n2)[C@H]1c1cccs1 [Compound 472, (3R,6S)-4-(5-(4-fluorophenyl)-1,2,4-oxadiazole-3-carbonyl)-6-phenyl-3-(thiophen-2-yl)piperazin-2-one] | > 10000 | 1200
CC(C)C[C@H]1C(=O)N[C@H](C2CCOCC2)CN1C(=O)c1noc(-c2ccc(F)cc2)n1 [Compound 473, (3S,6R)-4-(5-(4-fluorophenyl)-1,2,4-oxadiazole-3-carbonyl)-3-isobutyl-6-(tetrahydro-2H-pyran-4-yl)piperazin-2-one] | > 10000 | > 10000
CC(C)C[C@H]1C(=O)N[C@@H](C2CCOCC2)CN1C(=O)c1noc(-c2ccc(F)cc2)n1 [Compound 474, (3S,6S)-4-(5-(4-fluorophenyl)-1,2,4-oxadiazole-3-carbonyl)-3-isobutyl-6-(tetrahydro-2H-pyran-4-yl)piperazin-2-one] | > 10000 | 350
CC(C)C[C@H]1C(=O)N[C@H](C2CCOCC2)CN1C(=O)[C@@H]1C[C@H]1c1ccc(F)cc1 [Compound 475, (3S,6R)-4-((1R,2R)-2-(4-fluorophenyl)cyclopropanecarbonyl)-3-isobutyl-6-(tetrahy-dro-2H-pyran-4-yl)piperazin-2-one] | > 10000 | > 10000
